# Key:
# H6PD [1] = target: T1, H6PD (Homo sapiens, UniProt O95479); test: H6PD IC50 assay; type: biochemical; settings: for loss of H6PD inhibitory potency: relative to rucaparib
# T1 sequence (O95479 20-791): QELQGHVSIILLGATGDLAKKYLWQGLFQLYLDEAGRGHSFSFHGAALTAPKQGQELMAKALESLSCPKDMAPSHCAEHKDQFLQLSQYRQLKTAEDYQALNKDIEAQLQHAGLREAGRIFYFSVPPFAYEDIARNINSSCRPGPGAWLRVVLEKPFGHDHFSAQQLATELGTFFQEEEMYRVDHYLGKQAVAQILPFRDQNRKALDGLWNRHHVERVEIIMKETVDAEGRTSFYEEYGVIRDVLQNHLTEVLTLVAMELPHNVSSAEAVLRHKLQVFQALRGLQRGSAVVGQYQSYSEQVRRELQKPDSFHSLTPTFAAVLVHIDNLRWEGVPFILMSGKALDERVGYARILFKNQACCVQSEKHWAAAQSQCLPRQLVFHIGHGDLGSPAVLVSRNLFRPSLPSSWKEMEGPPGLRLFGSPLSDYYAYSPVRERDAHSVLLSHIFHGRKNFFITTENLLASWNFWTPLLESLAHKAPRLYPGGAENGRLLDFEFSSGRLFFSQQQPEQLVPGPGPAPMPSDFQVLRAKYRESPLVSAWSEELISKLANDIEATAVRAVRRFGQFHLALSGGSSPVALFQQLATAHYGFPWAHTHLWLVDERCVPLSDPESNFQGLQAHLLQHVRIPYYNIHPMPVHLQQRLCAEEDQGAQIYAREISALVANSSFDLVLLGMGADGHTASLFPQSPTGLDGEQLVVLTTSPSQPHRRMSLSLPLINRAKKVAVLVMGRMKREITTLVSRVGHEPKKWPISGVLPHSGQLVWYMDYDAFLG
# PARP-1 = settings: cited from earlier work
# prostate cancer cells = test: Glucocorticoid metabolism with apalutamide treatment; type: cell-based, human; settings: similar to enzalutamide
# H6PD protein = H6PD protein immunoblot in enz-treated cell lines; type: cell-based, human; settings: in vitro, LAPC4, VCaP and MDA-Pca-2b; transcript not increased
# H6PD [2] = test: H6PD protein in prostate cancer patient tissues; parameters: species or system human; settings: men with prostate cancer treated with enz and prostate tissues treated ex vivo; compared with pre-treatment
# [3] = system: H6PD activity in LAPC4 cells; test: Endoplasmic reticulum / microsomal NADPH in LAPC4 cells
# G6PD = G6PD (Homo sapiens, UniProt P11413); test: G6PD activity assay; type: biochemical; settings: fig. S10
# Sequence of G6PD (P11413 whole entry): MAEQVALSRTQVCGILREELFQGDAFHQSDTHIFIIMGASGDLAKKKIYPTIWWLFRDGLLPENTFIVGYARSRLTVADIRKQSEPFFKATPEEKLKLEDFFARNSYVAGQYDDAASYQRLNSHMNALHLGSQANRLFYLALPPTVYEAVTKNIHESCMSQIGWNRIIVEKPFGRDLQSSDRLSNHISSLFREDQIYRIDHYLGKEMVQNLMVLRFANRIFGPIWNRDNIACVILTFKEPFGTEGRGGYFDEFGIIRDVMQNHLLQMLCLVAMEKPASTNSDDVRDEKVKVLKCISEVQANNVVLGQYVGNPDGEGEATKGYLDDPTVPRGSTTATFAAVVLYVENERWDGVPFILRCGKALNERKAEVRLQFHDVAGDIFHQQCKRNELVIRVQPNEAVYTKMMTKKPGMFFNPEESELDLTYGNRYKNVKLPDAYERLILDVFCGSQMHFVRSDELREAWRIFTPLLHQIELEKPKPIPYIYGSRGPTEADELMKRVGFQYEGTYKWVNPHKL
# H6PD [4] = target: T1, H6PD; test: Surface plasmon resonance; type: binding; settings: SPR; Fig. 4A and fig. S9
# H6PD [5] = target: T1, H6PD; test: In vitro H6PD activity assay; type: biochemical; settings: for inhibition of H6PD activity: fig. S10
# H6PD [6] = settings: of four PARP inhibitors; cited from earlier work
# [7] = system: enz-resistant LAPC4 cells; test: Cell viability assay; type: cell-based, human; settings: 100 nM cortisol with 10 μM enz, 5 days; Fig 4E
compound,measurement,setting,value
CNCc1ccc(-c2[nH]c3cccc4c3c2CCNC4=O)cc1 [Compound 2],loss of H6PD inhibitory potency,H6PD [1],greater than 20 x
CNCc1ccc(-c2[nH]c3cc(F)cc4c3c2CCN(C)C4=O)cc1 [Compound 4],loss of H6PD inhibitory potency,H6PD [1],~ 10 x
O=C1NCCc2c(-c3ccc(CO)cc3)[nH]c3cc(F)cc1c23 [Compound 5],IC50,H6PD [1]; read-out: H6PD IC50,27 µM
same,PARP inhibition activity,PARP-1,poor PARP inhibition activity
CNC(=O)c1ccc(N2C(=S)N(c3cnc(C#N)c(C(F)(F)F)c3)C(=O)C23CCC3)cc1F [apalutamide],changes in glucocorticoid metabolism,prostate cancer cells,induces similar changes in glucocorticoid metabolism
CNC(=O)c1ccc(N2C(=S)N(c3ccc(C#N)c(C(F)(F)F)c3)C(=O)C2(C)C)cc1F [enzalutamide],H6PD protein,H6PD protein,increased
same,H6PD in patient tissues post-treatment,H6PD [2],increase in H6PD was also detectable
same,increase in NADPH generation in the endoplasmic reticulum,"[3]; LAPC4 cells, continuous enz treatment, p<0.0001",> 2 fold
O=C(c1cc(Cc2n[nH]c(=O)c3ccccc23)ccc1F)N1CCN(C(=O)C2CC2)CC1 [olaparib],inhibition of G6PD activity,G6PD,neither inhibited G6PD activity
same,binding to H6PD,H6PD [4],but not olaparib (another PARP inhibitor) specifically bound H6PD
same,inhibition of H6PD activity,H6PD [5],but not olaparib inhibited H6PD activity
CNCc1ccc(-c2[nH]c3cc(F)cc4c3c2CCNC4=O)cc1 [rucaparib],inhibition of G6PD activity,G6PD,neither inhibited G6PD activity
same,H6PD generation of NADPH in enz-resistant prostate cancer,"[3]; enz-resistant LAPC4 cells, 24 hours, microsomal NADPH, Fig 4C",inhibited H6PD generation of NADPH
same,off-target H6PD inhibition,H6PD [6],off-target H6PD inhibition was specifically identified only with rucaparib
same,cell viability,[7],limited cell viability in vitro
same,binding to H6PD,H6PD [4],specifically bound H6PD
same,H6PD generation of NADPH in vitro,"H6PD [5]; H6PD protein, D-glucosamine 6-phosphate and NADP, 1 hour, Fig 4B",inhibited H6PD generation of NADPH in vitro
same,inhibition of H6PD activity,H6PD [5],inhibited H6PD activity
same,inhibition of H6PD activity,H6PD [5]; listed as Rucaparib,modest H6PD inhibitor
